Experimental data reported in patent publication US6673821B2, “Nitrogen heterocycle inhibitors of aspartyl protease” (Enanta Pharmaceuticals, Inc., priority 2001, dated 2004).

Molecular target: HIV-1 protease (Human immunodeficiency virus type 1 group M subtype B, UniProt P04585)
Test: Biological assay for inhibition of microbial expressed viral protease (HIV-1 protease)
Type: biochemical
Excerpt: Insofar as compounds of the invention are able to inhibit the replication of the HIV virus in human T-cells and furthermore, may be delivered orally to mammals, they are of evident clinical utility for the treatment of HIV infection. These tests are predictive of the compounds ability to inhibit HIV protease in vivo. We have measured the inhibition constants of each compound against HIV-1 protease using essentially the method described by M. W. Pennington et al., Peptides 1990, Gimet, E. and D. Andrew, Eds., Escom; Leiden, Netherlands (1990).
Biological Assay for Inhibition of Microbial Expressed Viral Protease
The inhibition constants against HIV-1 protease were measured using the method described by M. V. Toth and G. R. Marshall, Int. J. Peptide protein Res., 1990, 544. The method described M. W. Pennington et al., Peptides 1990, Gimet, E. and D. Andrew, Eds., Escom; Leiden, Netherlands (1990) may also be used. Inhibition is measured as IC50 in μM. The person of skill would accept these tests as predictive of the compounds' utility in vivo to treat HIV infected patients.

Row | Compound | IC50
1 | CC(C)(C)OC(=O)NC(Cc1ccccc1)C(O)C1SCCN1S(=O)(=O)c1cccc2cccnc12 (stereo not shown) [EP-001153] | 5 to 20 µM
2 | CC(C)(C)OC(=O)NC(Cc1ccccc1)C(O)C1SCCN1S(=O)(=O)c1ccc(OC(F)(F)F)cc1 (stereo not shown) [EP-001155] | 5 to 20 µM
3 | CC(C)(C)OC(=O)NC(Cc1ccccc1)C(O)C1SCCN1S(=O)(=O)c1ccccc1 (stereo not shown) [EP-001156] | < 5 µM
4 | CC(C)(C)OC(=O)NC(Cc1ccccc1)C(O)C1SCCN1S(=O)(=O)c1ccc([N+](=O)[O-])cc1 (stereo not shown) [EP-001157] | < 5 µM
5 | CC(C)c1ccc(S(=O)(=O)N2CCSC2C(O)C(Cc2ccccc2)NC(=O)OC(C)(C)C)cc1 (stereo not shown) [EP-001159] | 5 to 20 µM
6 | Cc1c(O)cccc1C(=O)NC(Cc1ccccc1)C(O)C1SCCN1S(=O)(=O)c1ccc(F)cc1 (stereo not shown) [EP-001161] | < 5 µM
7 | Cc1cccc(C)c1OCC(=O)NC(Cc1ccccc1)C(O)C1SCCN1S(=O)(=O)c1ccc(F)cc1 (stereo not shown) [EP-001162] | < 5 µM
8 | O=C(COc1ccccc1)NC(Cc1ccccc1)C(O)C1SCCN1S(=O)(=O)c1ccc(F)cc1 (stereo not shown) [EP-001163] | > 20 µM
9 | CC(Oc1ccccc1)C(=O)NC(Cc1ccccc1)C(O)C1SCCN1S(=O)(=O)c1ccc(F)cc1 (stereo not shown) [EP-001164] | > 20 µM
10 | O=C(COc1cccc2ccccc12)NC(Cc1ccccc1)C(O)C1SCCN1S(=O)(=O)c1ccc(F)cc1 (stereo not shown) [EP-001165] | > 20 µM
11 | O=C(COc1ccc2ccccc2c1)NC(Cc1ccccc1)C(O)C1SCCN1S(=O)(=O)c1ccc(F)cc1 (stereo not shown) [EP-001166] | > 20 µM
12 | O=C(NC(Cc1ccccc1)C(O)C1SCCN1S(=O)(=O)c1ccc(F)cc1)OC1CCOC1 (stereo not shown) [EP-001169] | < 5 µM
13 | O=C(Cc1ccccc1)NC(Cc1ccccc1)C(O)C1SCCN1S(=O)(=O)c1ccc(F)cc1 (stereo not shown) [EP-001171] | > 20 µM
14 | CC(C)(C)OC(=O)NC(Cc1ccccc1)C(O)C1SCCN1S(=O)(=O)c1ccc(N)cc1 (stereo not shown) [EP-001172] | < 5 µM
15 | COCCOC(=O)NC(Cc1ccccc1)C(O)C1SCCN1S(=O)(=O)c1ccc(F)cc1 (stereo not shown) [EP-001184] | < 5 µM
16 | Cc1c(O)cccc1C(=O)NC(Cc1ccccc1)C(O)C1SCCN1S(=O)(=O)c1ccc(N)cc1 (stereo not shown) [EP-001195] | < 5 µM
